Test results taken from patent US20220073536A1 (Rigel Pharmaceuticals, Inc., priority 2003, published 2022).

Legend:
[1] = test system: cultured human mast cells (CHMC); assay: CHMC low cell density IgE activation: tryptase assay; type: cell-based; settings: low cell density CHMC, IgE activation, tryptase release
How it was run: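 CHMC were seeded at 1000–1500 cells/well in MT buffer and incubated 1 hr at 37 °C. They were then stimulated with anti-IgE for 30 min at 37 °C, with unstimulated wells as controls. Released tryptase in the supernatant was measured with a fluorogenic substrate after 30 min at room temperature.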

[2] = test system: cultured human mast cells (CHMC); assay: CHMC low cell density ionomycin activation: tryptase assay; type: cell-based; settings: low cell density CHMC, tryptase release, 3 pt, read-out: LD Tryptase, CHMC, Iono, 3 pt
[3] = 3 pt, read-out: LD Tryptase, CHMC, IgE, 3 pt
[4] = 8 pt, read-out: LD Tryptase, CHMC, IgE, 8 pt
[5] = Homo sapiens, Mast cell, 3 pt, read-out: LD Tryptase, CHMC, IgE, 3 pt
[6] = Homo sapiens, Mast cell, 8 pt, read-out: LD Tryptase, CHMC, IgE, 8 pt

| IC50 [1, 3] [µM] | IC50 [1, 4] [µM] | IC50 [2] [µM] | IC50 [1, 5] [µM] | IC50 [1, 6] [µM] | IC50 ([2]; Homo sapiens, Mast cell) [µM] | Compound |
| --- | --- | --- | --- | --- | --- | --- |
| < 10 | < 10 | > 10 |  |  |  | Fc1cnc(Nc2ccc(-c3cnco3)cc2)nc1Nc1ccc2c(c1)NCCO2 [Compound 222, N4-(3,4-Dihydro-2H,4H-Benz[1,4]oxazin-6-yl)-5-fluoro-N2-[4-(oxazol-5-yl)phenyl]-2,4-pyrimidinediamine] |
| < 10 | < 10 | > 10 |  |  |  | CC1(C)COc2ccc(Nc3nc(Nc4ccc(-c5cnco5)cc4)ncc3F)cc2N1 [Compound 223, N4-(3,4-Dihydro-3,3-dimethyl-2H,4H-benz[1,4]oxazin-6-yl)-5-fluoro-N2-[4-(oxazol-5-yl)phenyl]-2,4-pyrimidinediamine] |
|  |  |  | < 10 | < 10 | > 10 | O=C1COc2ccc(Nc3nc(Nc4ccc(-c5cnco5)cc4)ncc3F)cc2N1 [Compound 224] |
| < 10 | < 10 | > 10 |  |  |  | C[C@@H]1Oc2ccc(Nc3nc(Nc4ccc(-c5cnco5)cc4)ncc3F)cc2NC1=O [Compound 225] |
|  |  |  | < 10 | < 10 | > 10 | O=C1COc2cc(Nc3nc(Nc4ccc(-c5cnco5)cc4)ncc3F)ccc2N1 [Compound 226] |
|  |  |  | < 10 | < 10 | > 10 | O=C1Nc2cc(Nc3nc(Nc4ccc(-c5cnco5)cc4)ncc3F)ccc2OC1CCO (stereo not shown) [Compound 227] |
|  |  |  | < 10 | < 10 | > 10 | CN1CCOc2ccc(Nc3nc(Nc4ccc(-c5cnco5)cc4)ncc3F)cc21 [Compound 228] |
|  |  |  | < 10 | < 10 | > 10 | CN1CCOc2cc(Nc3nc(Nc4ccc(-c5cnco5)cc4)ncc3F)ccc21 [Compound 229] |
|  |  |  | > 10 | > 10 | > 10 | CN1C(=O)COc2cc(Nc3nc(Nc4ccc(-c5cnco5)cc4)ncc3F)ccc21 [Compound 230] |
|  |  |  | > 10 | > 10 | > 10 | CN1C(=O)COc2ccc(Nc3nc(Nc4ccc(-c5cnco5)cc4)ncc3F)cc21 [Compound 231] |
| < 10 | < 10 | > 10 |  |  |  | Fc1cnc(Nc2cccc(-c3cnco3)c2)nc1Nc1ccc2c(c1)NCCO2 [Compound 232, N4-(3,4-Dihydro-2H,4H-benz[1,4]oxazin-6-yl)-5-fluoro-N2-[3-(oxazol-5-yl)phenyl]-2,4-pyrimidinediamine] |
| < 10 | < 10 | > 10 |  |  |  | CC1(C)COc2ccc(Nc3nc(Nc4cccc(-c5cnco5)c4)ncc3F)cc2N1 [Compound 233, N4-(3,4-Dihydro-3,3-dimethyl-2H,4H-benz[1,4]oxazin-6-yl)-5-fluoro-N2-[3-(oxazol-5-yl)phenyl]-2,4-pyrimidinediamine] |
|  |  |  | < 10 | < 10 | > 10 | O=C1COc2cc(Nc3nc(Nc4cccc(-c5cnco5)c4)ncc3F)ccc2N1 [Compound 234] |
|  |  |  | < 10 | < 10 | > 10 | O=C1Nc2cc(Nc3nc(Nc4cccc(-c5cnco5)c4)ncc3F)ccc2OC1CCO (stereo not shown) [Compound 235] |
|  |  |  | < 10 |  | > 10 | CN1CCOc2ccc(Nc3nc(Nc4cccc(-c5cnco5)c4)ncc3F)cc21 [Compound 236] |
|  |  |  | < 10 |  | > 10 | CN1CCOc2cc(Nc3nc(Nc4cccc(-c5cnco5)c4)ncc3F)ccc21 [Compound 237] |
| < 10 | < 10 | > 10 |  |  |  | CC1(C)COc2ccc(Nc3nc(Nc4ccc(-c5ncco5)cc4)ncc3F)cc2N1 [Compound 238, N4-(3,4-Dihydro-3,3-dimethyl-2H,4H-benz[1,4]oxazin-6-yl)-5-fluoro-N2-[4-(oxazol-2-yl)phenyl]-2,4-pyrimidinediamine] |

| IC50 [1, 3] [µM] | IC50 [1, 4] [µM] | IC50 [2] [µM] | IC50 [1, 5] [µM] | IC50 [1, 6] [µM] | IC50 ([2]; Homo sapiens, Mast cell) [µM] | Compound |
| --- | --- | --- | --- | --- | --- | --- |
|  |  |  | < 10 | < 10 | > 10 | O=C1COc2ccc(Nc3nc(Nc4ccc(-c5ncco5)cc4)ncc3F)cc2N1 [Compound 239] |
|  |  |  | < 10 | < 10 | > 10 | C[C@@H]1Oc2ccc(Nc3nc(Nc4ccc(-c5ncco5)cc4)ncc3F)cc2NC1=O [Compound 240] |
|  |  |  | > 10 |  | > 10 | O=C1COc2cc(Nc3nc(Nc4ccc(-c5ncco5)cc4)ncc3F)ccc2N1 [Compound 241] |
|  |  |  | < 10 | < 10 | > 10 | O=C1Nc2cc(Nc3nc(Nc4ccc(-c5ncco5)cc4)ncc3F)ccc2OC1CCO (stereo not shown) [Compound 242] |
| < 10 | < 10 | > 10 |  |  |  | CN1CCOc2ccc(Nc3nc(Nc4ccc(-c5ncco5)cc4)ncc3F)cc21 [Compound 243, N4-(2,3-Dihydro-4-methyl-2H-benz[1,4]oxazin-6-yl)-5-fluoro-N2-[4-(oxazol-2-yl)phenyl]-2,4-pyrimidinediamine] |
|  |  |  | > 10 |  | > 10 | CN1C(=O)COc2cc(Nc3nc(Nc4ccc(-c5ncco5)cc4)ncc3F)ccc21 [Compound 244] |
|  |  |  | > 10 |  | > 10 | CN1C(=O)COc2ccc(Nc3nc(Nc4ccc(-c5ncco5)cc4)ncc3F)cc21 [Compound 245] |
|  |  |  | < 10 | < 10 | > 10 | O=C1COc2ccc(Nc3nc(Nc4cccc(-c5cnco5)c4)ncc3F)cc2N1 [Compound 246] |
|  |  |  | < 10 | < 10 | > 10 | C[C@@H]1Oc2ccc(Nc3nc(Nc4cccc(-c5cnco5)c4)ncc3F)cc2NC1=O [Compound 247] |
|  |  |  | < 10 | < 10 | > 10 | O=C1Nc2ccc(Nc3nc(Nc4cccc(-c5ncco5)c4)ncc3F)cc2OC1CCO (stereo not shown) [Compound 248] |
|  |  |  | < 10 | > 10 | > 10 | O=C1Nc2ccc(Nc3nc(Nc4ccc(-c5cnco5)cc4)ncc3F)cc2OC1CCO (stereo not shown) [Compound 249] |
|  |  |  | < 10 | < 10 | < 10 | C[C@H]1Oc2ccc(Nc3nc(Nc4cccc(-c5cocn5)c4)ncc3F)cc2NC1=O [Compound 250] |
|  |  |  | < 10 | < 10 | > 10 | C[C@@H]1Oc2ccc(Nc3nc(Nc4cccc(-c5cocn5)c4)ncc3F)cc2NC1=O [Compound 251] |
| < 10 | < 10 | > 10 |  |  |  | COc1cc(Nc2ncc(F)c(Nc3ccc4c(c3)NCC(CCO)O4)n2)cc(OC)c1 (stereo not shown) [Compound 253, N4-[3,4-Dihydro-2-(2-hydroxyethyl)-2H,4H-benz[1,4]oxazin-6-yl]-N2-(3,5-dimethoxyphenyl)-5-fluoro-2,4-pyrimidinediamine] |
| < 10 | < 10 | > 10 |  |  |  | CNC(=O)COc1cccc(Nc2ncc(F)c(Nc3ccc4c(c3)NC(=O)CS4)n2)c1 [Compound 254, 5-Fluoro-N2-[3-(N-methylamino)carbonylmethyleneoxyphenyl]-N4-(3-oxo-2H,4H-benzo[1,4]thiazin-6-yl)-2,4-pyrimidinediamine] |
| < 10 | < 10 | > 10 |  |  |  | Cc1cc(C)cc(Nc2ncc(F)c(Nc3ccc4c(c3)NCC(CCO)O4)n2)c1 (stereo not shown) [Compound 255, N4-[2,3-Dihydro-2-(2-hydroxyethyl)-2H,4H-benz[1,4]oxazin-6-yl]-N2-(3,5-dimethylphenyl)-5-fluoro-2,4-pyrimidinediamine] |
|  |  |  | < 10 | < 10 | > 10 | COc1cc(Nc2ncc(F)c(Nc3ccc4c(c3)NC(=O)CS4)n2)cc(OC)c1 [Compound 256] |
